Measurements reported in patent US20150376172A1, “FLUORO-[1,3]OXAZINES AS BACE1 INHIBITORS” (HOFFMANN-LA ROCHE INC., priority 2013, published 2015).
Where a name gives a salt, the structure may show the parent alone. Each block holds one compound with its values, some of them ahead of it.

Target: T1, BACE1 (Homo sapiens, UniProt P56817)
T1 construct: endogenous in cells; host or cells: HEK293 APP cells
Test: Cellular Aβ-lowering assay (Abeta 40 AlphaLISA)
Format: cell-based
Settings: HEK293 APP cells; 18-20 hrs incubation; Aβ 40 in culture supernatants by AlphaLISA; read-out: BACE1 cell act. Aβ40 IC50
Procedure: Cellular Aβ-lowering assay:
The Abeta 40 AlphaLISA Assay can be used. The HEK293 APP cells were seeded in 96 well Microtiter plates in cell culture medium (Iscove's, plus 10% (v/v) fetal bovine serum, penicillin/streptomycin) to about 80% confluency and the compounds were added at a 3× concentration in ⅓ volume of culture medium (final DMSO concentration was kept at 1% v/v). After 18-20 hrs incubation at 37° C. and 5% CO2 in a humidified incubator, the culture supernatants were harvested for the determination of Aβ 40 concentrations using Perkin-Elmer Human Amyloid beta 1-40 (high specificity) Kit (Cat#AL275C).
In a Perkin-Elmer White Optiplate-384 (Cat#6007290), 2 ul culture supernatants were combined with 2 μl of a 10× AlphaLISA Anti-hAβAcceptor beads+Biotinylated Antibody Anti-Aβ1-40 Mix (50 μg/mL/5 nM). After 1 hour room temperature incubation, 16 μl of a 1.25× preparation of Streptavidin (SA) Donor beads (25 μg/mL) were added and incubated for 30 minutes in the Dark. Light Emission at 615 nm was then recorded using EnVision-Alpha Reader. Levels of Aβ 40 in the culture supernatants were calculated as percentage of maximum signal (cells treated with 1% DMSO without inhibitor). The IC50 values were calculated using the Excel XLfit software.

T1 sequence (P56817 46-501): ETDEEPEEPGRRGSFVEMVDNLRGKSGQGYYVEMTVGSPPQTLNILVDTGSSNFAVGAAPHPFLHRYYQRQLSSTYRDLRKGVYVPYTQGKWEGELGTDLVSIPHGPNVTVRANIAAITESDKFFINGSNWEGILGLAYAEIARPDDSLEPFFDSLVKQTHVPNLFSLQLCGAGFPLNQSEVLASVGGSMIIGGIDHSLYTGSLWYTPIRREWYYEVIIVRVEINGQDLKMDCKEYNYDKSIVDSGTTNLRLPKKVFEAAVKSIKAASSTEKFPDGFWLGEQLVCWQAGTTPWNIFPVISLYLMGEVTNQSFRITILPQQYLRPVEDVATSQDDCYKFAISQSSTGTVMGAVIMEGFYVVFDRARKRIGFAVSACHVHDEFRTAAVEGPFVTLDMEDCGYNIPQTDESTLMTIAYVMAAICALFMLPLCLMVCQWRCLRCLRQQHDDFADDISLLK

SMILES: C[C@]1(c2cc(NC(=O)c3ccc(C#N)cn3)ccc2F)N=C(N)O[C@@H](C(F)(F)F)[C@@H]1F [Example 1, N-(3-((4R,5R,6R)-2-Amino-5-fluoro-4-methyl-6-(trifluoromethyl)-5,6-dihydro-4H-1,3-oxazin-4-yl)-4-fluorophenyl)-5-cyanopicolinamide]
IC50: 150 nM

SMILES: C[C@]1(c2cc(NC(=O)c3ccc(Cl)cn3)ccc2F)N=C(N)O[C@@H](C(F)(F)F)[C@@H]1F [Example 3, N-(3-((4R,5R,6R)-2-Amino-5-fluoro-4-methyl-6-(trifluoromethyl)-5,6-dihydro-4H-1,3-oxazin-4-yl)-4-fluorophenyl)-5-chloropicolinamide]
IC50: 490 nM

SMILES: C[C@]1(c2cc(NC(=O)c3ccc(Cl)cn3)ccc2F)N=C(N)O[C@H](C(F)(F)F)[C@@H]1F [Example 4, N-(3-((4R,5R,6S)-2-Amino-5-fluoro-4-methyl-6-(trifluoromethyl)-5,6-dihydro-4H-1,3-oxazin-4-yl)-4-fluorophenyl)-5-chloropicolinamide]
IC50: 14 nM

SMILES: COc1cnc(C(=O)Nc2ccc(F)c([C@@]3(C)N=C(N)O[C@H](C(F)(F)F)[C@@H]3F)c2)cn1 [Example 5, N-(3-((4R,5R,6S)-2-Amino-5-fluoro-4-methyl-6-(trifluoromethyl)-5,6-dihydro-4H-1,3-oxazin-4-yl)-4-fluorophenyl)-5-methoxypyrazine-2-carboxamide]
IC50: 12 nM

SMILES: C[C@]1(c2cc(NC(=O)c3cnc(C(F)F)cn3)ccc2F)N=C(N)O[C@H](C(F)(F)F)[C@@H]1F [Example 6, N-(3-((4R,5R,6S)-2-Amino-5-fluoro-4-methyl-6-(trifluoromethyl)-5,6-dihydro-4H-1,3-oxazin-4-yl)-4-fluorophenyl)-5-(difluoromethyl)pyrazine-2-carboxamide]
IC50: 58 nM

SMILES: C[C@]1(F)[C@H](C(F)(F)F)OC(N)=N[C@]1(C)c1cc(NC(=O)c2ccc(C#N)cn2)ccc1F [Example 9, N-(3-((4R,5R,6R)-2-Amino-5-fluoro-4,5-dimethyl-6-(trifluoromethyl)-5,6-dihydro-4H-1,3-oxazin-4-yl)-4-fluorophenyl)-5-cyanopicolinamide]
IC50: 440 nM

SMILES: C[C@@]1(c2cc(-c3cncnc3)ccc2F)C[C@@H](C(F)(F)F)OC(N)=N1 [Example 11, (4S,6S)-4-(2-fluoro-5-(pyrimidin-5-yl)phenyl)-4-methyl-6-(trifluoromethyl)-5,6-dihydro-4H-1,3-oxazin-2-amine]
IC50: 420 nM

SMILES: C[C@@]1(c2cc(-c3cncc(C#N)c3)ccc2F)C[C@@H](C(F)(F)F)OC(N)=N1 [Example 12, 5-(3-((4S,6S)-2-Amino-4-methyl-6-(trifluoromethyl)-5,6-dihydro-4H-1,3-oxazin-4-yl)-4-fluorophenyl)nicotinonitrile]
IC50: 900 nM

SMILES: CC#Cc1cncc(-c2ccc(F)c([C@]3(C)C[C@@H](C(F)(F)F)OC(N)=N3)c2)c1 [Example 14, (4S,6S)-4-(2-Fluoro-5-(5-(prop-1-ynyl)pyridin-3-yl)phenyl)-4-methyl-6-(trifluoromethyl)-5,6-dihydro-4H-1,3-oxazin-2-amine]
IC50: 250 nM

SMILES: C[C@@]1(c2cc(-c3cncnc3)c(F)cc2F)C[C@@H](C(F)(F)F)OC(N)=N1 [Example 17, (4S,6S)-4-(2,4-Difluoro-5-(pyrimidin-5-yl)phenyl)-4-methyl-6-(trifluoromethyl)-5,6-dihydro-4H-1,3-oxazin-2-amine]
IC50: 190 nM

SMILES: C[C@@]1(c2cc(-c3cccnc3F)c(F)cc2F)C[C@@H](C(F)(F)F)OC(N)=N1 [Example 18, (4S,6S)-4-(2,4-Difluoro-5-(2-fluoropyridin-3-yl)phenyl)-4-methyl-6-(trifluoro-methyl)-5,6-dihydro-4H-1,3-oxazin-2-amine]
IC50: 120 nM

SMILES: CC#Cc1cncc(-c2cc([C@]3(C)C[C@@H](C(F)(F)F)OC(N)=N3)c(F)cc2F)c1 [Example 19, (4S,6S)-4-(2,4-Difluoro-5-(5-(prop-1-ynyl)pyridin-3-yl)phenyl)-4-methyl-6-(trifluoromethyl)-5,6-dihydro-4H-1,3-oxazin-2-amine]
IC50: 570 nM

SMILES: C[C@@]1(c2cc(C#Cc3cccnc3)ccc2F)C[C@@H](C(F)(F)F)OC(N)=N1 [Example 22, (4S,6S)-4-(2-Fluoro-5-(pyridin-3-ylethynyl)phenyl)-4-methyl-6-(trifluoromethyl)-5,6-dihydro-4H-1,3-oxazin-2-amine]
IC50: 470 nM

SMILES: COc1cnc(C#Cc2ccc(F)c([C@]3(C)C[C@@H](C(F)(F)F)OC(N)=N3)c2)nc1 [Example 24, (4S,6S)-4-(2-Fluoro-5-((5-methoxypyrimidin-2-yl)ethynyl)phenyl)-4-methyl-6-(trifluoromethyl)-5,6-dihydro-4H-1,3-oxazin-2-amine]
IC50: 1670 nM

Further compounds by falling IC50, results first:

IC50: 1380 nM
SMILES: C[C@@]1(c2cc(-c3cccnc3F)cs2)C[C@@H](C(F)(F)F)OC(N)=N1 [Example 27, (4S,6S)-4-(4-(2-Fluoropyridin-3-yl)thiophen-2-yl)-4-methyl-6-(trifluoromethyl)-5,6-dihydro-4H-1,3-oxazin-2-amine Hydrochloride]

IC50: 1280 nM
SMILES: COc1cnc(C#Cc2ccc(F)c([C@]3(C)C[C@@H](C(F)(F)F)OC(N)=N3)c2)cn1 [Example 25, (4S,6S)-4-(2-Fluoro-5-((5-methoxypyrazin-2-yl)ethynyl)phenyl)-4-methyl-6-(trifluoromethyl)-5,6-dihydro-4H-1,3-oxazin-2-amine]

IC50: 1100 nM
SMILES: C[C@@]1(c2cc(-c3cnn(C(F)F)c3)ccc2F)C[C@@H](C(F)(F)F)OC(N)=N1 [Example 16, (4S,6S)-4-(5-(1-(Difluoromethyl)-1H-pyrazol-4-yl)-2-fluorophenyl)-4-methyl-6-(trifluoromethyl)-5,6-dihydro-4H-1,3-oxazin-2-amine]

IC50: 950 nM
SMILES: C[C@@]1(c2cc(-c3cncc(Cl)n3)ccc2F)C[C@@H](C(F)(F)F)OC(N)=N1 [Example 15, (4S,6S)-4-(5-(6-Chloropyrazin-2-yl)-2-fluorophenyl)-4-methyl-6-(trifluoromethyl)-5,6-dihydro-4H-1,3-oxazin-2-amine]

IC50: 700 nM
SMILES: C[C@@]1(c2cc(-c3cncc(C#N)c3)cs2)C[C@@H](C(F)(F)F)OC(N)=N1 [Example 26, 5-(5-((4S,6S)-2-Amino-4-methyl-6-(trifluoromethyl)-5,6-dihydro-4H-1,3-oxazin-4-yl)thiophen-3-yl)nicotinonitrile Hydrochloride]

IC50: 330 nM
SMILES: C[C@@]1(c2cc(-c3cccc(C(F)(F)F)c3)cs2)C[C@@H](C(F)(F)F)OC(N)=N1 [Example 28, (4S,6S)-4-Methyl-6-(trifluoromethyl)-4-(4-(3-(trifluoromethyl)phenyl)thiophen-2-yl)-5,6-dihydro-4H-1,3-oxazin-2-amine]

IC50: 310 nM
SMILES: CC#Cc1cncc(-c2csc([C@]3(C)C[C@@H](C(F)(F)F)OC(N)=N3)c2)c1 [Example 29, (4S,6S)-4-Methyl-4-(4-(5-(prop-1-ynyl)pyridin-3-yl)thiophen-2-yl)-6-(trifluoromethyl)-5,6-dihydro-4H-1,3-oxazin-2-amine Hydrochloride]

IC50: 250 nM
SMILES: C[C@@]1(c2cc(C#Cc3ccnc(Cl)c3)ccc2F)C[C@@H](C(F)(F)F)OC(N)=N1 [Example 20, (4S,6S)-4-(5-((2-Chloropyridin-4-yl)ethynyl)-2-fluorophenyl)-4-methyl-6-(trifluoromethyl)-5,6-dihydro-4H-1,3-oxazin-2-amine]

IC50: 150 nM
SMILES: C[C@@]1(c2cc(-c3cncc(Cl)c3)ccc2F)C[C@@H](C(F)(F)F)OC(N)=N1 [Example 13, (4S,6S)-4-(5-(5-Chloropyridin-3-yl)-2-fluorophenyl)-4-methyl-6-(trifluoromethyl)-5,6-dihydro-4H-1,3-oxazin-2-amine]

IC50: 77 nM
SMILES: C[C@@]1(c2cc(C#Cc3ncc(Cl)cn3)ccc2F)C[C@@H](C(F)(F)F)OC(N)=N1 [Example 23, (4S,6S)-4-(5-((5-Chloropyrimidin-2-yl)ethynyl)-2-fluorophenyl)-4-methyl-6-(trifluoromethyl)-5,6-dihydro-4H-1,3-oxazin-2-amine]

IC50: 59 nM
SMILES: C[C@@]1(c2cc(C#Cc3ccc(C#N)cn3)ccc2F)C[C@@H](C(F)(F)F)OC(N)=N1 [Example 21, 6-((3-((4S,6S)-2-Amino-4-methyl-6-(trifluoromethyl)-5,6-dihydro-4H-1,3-oxazin-4-yl)-4-fluorophenyl)ethynyl)nicotinonitrile]

IC50: 10 nM
SMILES: C[C@]1(c2cc(NC(=O)c3ccc(C#N)cn3)ccc2F)N=C(N)O[C@H](C(F)(F)F)[C@@H]1F [Example 2, N-(3-((4R,5R,6S)-2-Amino-5-fluoro-4-methyl-6-(trifluoromethyl)-5,6-dihydro-4H-1,3-oxazin-4-yl)-4-fluorophenyl)-5-cyanopicolinamide]

IC50: 2 nM
SMILES: CC#CCOc1cnc(C(=O)Nc2ccc(F)c([C@@]3(C)N=C(N)O[C@H](C(F)(F)F)[C@@H]3F)c2)cn1 [Example 7, N-(3-((4R,5R,6S)-2-Amino-5-fluoro-4-methyl-6-(trifluoromethyl)-5,6-dihydro-4H-1,3-oxazin-4-yl)-4-fluorophenyl)-5-(but-2-ynyloxy)pyrazine-2-carboxamide]

IC50: 2 nM
SMILES: C[C@]1(c2cc(NC(=O)c3ccc(C#N)cn3)ccc2F)N=C(N)O[C@H](C(F)(F)F)[C@@H]1OCC(F)(F)F [Example 8, N-(3-((4R,5R,6S)-2-Amino-4-methyl-5-(2,2,2-trifluoroethoxy)-6-(trifluoromethyl)-5,6-dihydro-4H-1,3-oxazin-4-yl)-4-fluorophenyl)-5-cyanopicolinamide]
